Values of other authors, collected in patent publication US20220175791A1, “Methods for Predicting Neisseria Spp. Susceptibility to Cefixime” (priority 2019, published 2022).

C=CC1=C(C(=O)O)N2C(=O)[C@@H](NC(=O)/C(=N\OCC(=O)O)c3csc(N)n3)[C@H]2SC1 [cefixime, Cefixime]
tolerability (even in penicillin allergic patients): very well tolerated
bioavailability (human, in vivo, po): high
